Values joined by “and” are separate entries in the source; they are usually repeats but may differ in a detail not shown here. Equal values may be shown once. “Also recorded” adds a separate entry of the source. Read-outs that look alike come from different tables or passages of the source.
Columns and labels:
[1] = test system: maximal electroshock seizures (MES);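 as to animals with anti-MES activity at 5 mg/kg: seizures induced by corneal electroshock, 60-cycle alternating current at 50 mA for 0.2 s, protection means no hind limb tonic extension, scored right after the shock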;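 as to safety ratio (SR=TD3/ED97), MES test: seizures induced by corneal electroshock, 60-cycle alternating current at 50 mA for 0.2 s, protection means no hind limb tonic extension, scored right after the shock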
Procedure: The preliminary screening was done at doses of the test compounds from 30 mg/kg up to 600 mg/kg adminstered ip in mice and evaluated against maximal electroshock seizures (MES) and subcutaneous Metrazole (scMet) induced convulsions and in the rotorod test for neurologic deficit.
(§1) All tests were performed using male Carworth Farms number-one mice. Test solutions of all compounds were prepared in 30% polyethylene glycol 400 and animals were dosed intraperitoneally (ip) at 30 minutes prior to testing.
Maximal electroshock seizures (MES) were elicited with a 60 cycle alternating current of 50 mA intensity delivered for 0.2 second via corneal electrodes. A drop of 0.9% saline was instilled in the eye prior to application of electrodes. The animals were examined and evaluated immediately after the electroshock for the occurrence of clonic, flexor tonic, or extensor tonic convulsions or death. Abolition of the hind limb tonic extension component of the seizure was defined as protection in the MES test. The ED50 was determined for the test compound as the dose which inhibited the occurrence of hind limb tonic convulsions in one half of the animals immediately after the electroshock as determined by graphical interpolation.
(§2) Neurological deficit was measured in mice using the rotorod test. The dosed animal was placed on a 1-inch diameter knurled plastic rod rotating at 6 rpm. Neurologic toxicity was defined as the failure of the animal to remain on the rod for 1 minute. The median anticonvulsant protency (ED50) and toxicity (TD50) were determined by the graphical method.

[2] = test system: maximal electroshock seizures (MES); conditions: cited from earlier work;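 as to animals with anti-MES activity at 5 mg/kg: seizures induced by corneal electroshock, 60-cycle alternating current at 50 mA for 0.2 s, protection means no hind limb tonic extension, scored right after the shock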;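 as to safety ratio (SR=TD3/ED97), MES test: seizures induced by corneal electroshock, 60-cycle alternating current at 50 mA for 0.2 s, protection means no hind limb tonic extension, scored right after the shock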
[3] = test system: subcutaneous Metrazole (scMet) induced convulsions; conditions: cited from earlier work
[4] = test system: subcutaneous Metrazole (scMet) induced convulsions; assay: Subcutaneous pentylenetetrazole (Metrazol) seizure threshold test (scMet) in mice, ip; conditions: for minimal effective dose / ED50: Mus musculus; for ED50: read-out: scMET ED50
Procedure: Protection in this test was defined as a failure to observe a single episode of clonic spasms of at least 5 second duration during a 30 minute period following adminstration of the test compound.

[5] = test system: convulsions induced by sc bicuculline; assay: sc bicuculline induced seizures in mice; type: in vivo; conditions: doses up to 30 mg/kg
[6] = test system: convulsions induced by sc picrotoxin; assay: sc picrotoxin induced seizures in mice; type: in vivo; conditions: doses up to 30 mg/kg
[7] = test system: convulsions induced by sc strychnine; assay: sc strychnine induced seizures in mice; type: in vivo; conditions: doses up to 30 mg/kg
[8] = test system: neurologic deficit (rotorod); conditions: mouse, in vivo
Procedure: as §1, §2

in vivo [9] = conditions: mouse, ip
Procedure: as §1

[10] = test system: neurologic deficit (rotorod); assay: Rotorod test for neurologic deficit in mice, ip
Procedure: as §1, §2

in vivo [11] = conditions: mouse, ip; remark: listed apart in the source
Procedure: as §1, §2

[12] = man; cited from earlier work
[13] = ip, 0.5 h, read-out: scMet activity, 30 min
[14] = ip, 4 h, read-out: scMet activity, 4 hrs
[15] = previous studies by Clark et al.

For `CC(NC(=O)c1ccc(N)cc1)c1ccccc1` (stereo not drawn) [Compound 14], the “safety ratio (SR=TD3/ED97), MES test” value ([1]; mouse, in vivo, ip) is given as 3.5, the “lethal dose (LD50)” value (ip, mice) is given as 718.18 mg/kg and the “MES ED50” value ([2]; Clark et al, ip, mice) is given as 18.02 mg/kg. The “MES PI (TD50/ED50)” value ([2]; Clark et al, ip, mice) was 9.50, the “scMET ED50” value ([3]; Clark et al, ip, mice) was 41.78 mg/kg and the “scMET PI (TD50/ED50)” value ([3]; Clark et al, ip, mice) was 4.10.
In the case of `Cc1cccc(C)c1NC(=O)c1ccc(N)cc1` [Example 1, 4-Amino-N-(2,6-dimethylphenyl) benzamide], the “anti-scMet activity (in words), 30 min” value ([4]; 30 minutes, ip, mice) is reported as “No anti-scMet activity”, the “anti-scMet activity (in words), 4 hours” value ([4]; 4 hours, ip, mice) is reported as “No anti-scMet activity” and the minimal effective dose [4, 13] is reported as > 300 mg/kg. For the same compound, the minimal effective dose [4, 14] was > 300 mg/kg, the “effect against convulsions induced by sc metrazole” value ([4]; doses up to 30 mg/kg, mice) was “ineffective” and the “anti-scMet activity (in words)” value ([4]; ip, mice) was “absent”. For the same compound, the “effect against convulsions induced by sc bicuculline” value [5] was “ineffective”, the “effect against convulsions induced by sc picrotoxin” value [6] was “ineffective” and the “effect against convulsions induced by sc strychnine” value [7] was “ineffective”. For the same compound, the “animals with anti-MES activity at 5 mg/kg” value ([1]; 5 mg/kg, 30 minutes, ip) was 4 of 4, the “animals with anti-MES activity at 30 mg/kg” value ([1]; ip, mice) was “all aminals” and the “anti-MES activity, active dose, 4 hours” value ([1]; 4 hours after ip administration, mice) was 30 mg/kg. The “MES ED50” value ([1]; ip, mice) was 2.60 mg/kg and 2.6 mg/kg, the “anti-MES / anticonvulsant activity (in words)” value ([1]; ip, mice) was “good anti-MES activity; also recorded: most potent amide of PABA observed thus far; also recorded: greater potency than any of the prototype anticonvulsant” and the “increase in anti-MES activity over compound 14” value ([1]; mice) was ~10 fold. The “time of peak effect for anti-MES activity” value ([1]; mice) was 30 min, the “PI values (in words)” value ([1]; mouse, in vivo, ip) was “higher PI values” and the “animals with rotorod toxicity at 20 mg/kg” value [8] was 3 of 4. The “animals with rotorod toxicity at 30 mg/kg” value [8] was “all aminals”, the “increase in toxicity over compound 14” value [8] was ~10 fold and the “time of peak effect for toxicity” value [8] was 30 min. The “rotorod toxicity, dose, 30 min” value ([8]; ip, 30 min) was 30 mg/kg, the “rotorod toxicity, dose, 4 hours” value ([8]; ip, 240 min) was 100 mg/kg and the “additional toxicity at higher doses” value (2×TD50 and 4×TD50, ip, mice) was “muscle relaxation, loss of righting reflex, decreased respiration with cyanosis and ptosis”. The “toxicity induced by the TD50 dose” value (TD50 dose, ip, mice) was “decreased motor activity, spasticity, ataxia, rotorod toxicity and sedation”, the “time after which all symptoms had disappeared” value (mouse, in vivo, ip) was ≤ 2 h and the LD50 (in vivo [9]) was 161 mg/kg. For the same compound, the TD50 (in vivo [9]) was 43.8 mg/kg and the “toxicity (in words)” value [10] was “most toxic”.
For `Nc1ccc(C(=O)Nc2ccccc2)cc1` [Example 2], the minimal effective dose [4, 13] was 100 mg/kg, the minimal effective dose [4, 14] was > 600 mg/kg and the “scMET PI (protective index = TD50/ED50)” value ([4]; ip, mice) was 1.88. For the same compound, the “MES PI (protective index = TD50/ED50)” value ([1]; mouse, in vivo, ip) was 2.20, the “activity against MES induced convulsions (dose range)” value [2, 15] was ~50 mg/kg and the “activity against scMet induced convulsions (dose range)” value [3, 15] was ~50 mg/kg.
With `Cc1ccccc1NC(=O)c1ccc(N)cc1` [Example 3, 4-amino-N-(2-methylphenyl) benzamide] the minimal effective dose [4, 13] was > 300 mg/kg, the minimal effective dose [4, 14] was > 300 mg/kg and the LD50 (in vivo [9]) was < 600 mg/kg.
In the case of `Cc1cccc(NC(=O)c2ccc(N)cc2)c1` [Example 4], the minimal effective dose [4, 13] is reported as 300 mg/kg, the minimal effective dose [4, 14] is reported as > 600 mg/kg and the ED50 ([4]; ip) is reported as 87.9 mg/kg. For the same compound, the “scMET PI (protective index = TD50/ED50)” value ([4]; ip, mice) was 1.62, the “MES ED50” value ([1]; ip, mice) was 46.96 mg/kg and the “difference between the dosages producing toxicity and anti-MES activity” value ([1]; ip, mice) was “appreciable difference between the dosages producing toxicity and anti-MES activity”. For the same compound, the “MES PI (protective index = TD50/ED50)” value ([1]; mouse, in vivo, ip) was 3.03 and the TD50 ([8]; ip) was 142.51 mg/kg.
In the case of `Cc1ccc(NC(=O)c2ccc(N)cc2)cc1` [Example 5, 4-amino-N-(4-methylphenyl) benzamide], the minimal effective dose [4, 13] is reported as 30 mg/kg and the minimal effective dose [4, 14] is reported as > 600 mg/kg.
With `Cc1cccc(NC(=O)c2ccc(N)cc2)c1C` [Example 6] the minimal effective dose [4, 13] was 100 mg/kg, the minimal effective dose [4, 14] was > 300 mg/kg and the “animals with anti-MES activity at 30 mg/kg” value ([1]; ip, mice) was “approximately half the animals”. For the same compound, the “MES ED50” value ([1]; ip, mice) was 25.25 mg/kg, the “PI values (in words)” value ([1]; ip, mice) was “higher PI values” and the “anti-MES / anticonvulsant activity (in words)” value ([1]; ip, mice) was “good anti-MES activity”. For the same compound, the “MES PI (protective index = TD50/ED50)” value ([1]; mouse, in vivo, ip) was 4.11, the TD50 ([8]; ip) was 103.90 mg/kg and the LD50 (in vivo [9]) was < 600 mg/kg.
In the case of `Cc1ccc(NC(=O)c2ccc(N)cc2)c(C)c1` [Example 7], the minimal effective dose [4, 13] is reported as 600 mg/kg, the minimal effective dose [4, 14] is reported as > 600 mg/kg and the “anti-MES / anticonvulsant activity (in words)” value ([1]; ip, mice) is reported as “good anti-MES activity”.
In the case of `Cc1ccc(C)c(NC(=O)c2ccc(N)cc2)c1` [Example 8], the minimal effective dose [4, 13] is reported as 300 mg/kg, the minimal effective dose [4, 14] is reported as > 600 mg/kg and the “anti-MES / anticonvulsant activity (in words)” value ([1]; ip, mice) is reported as “good anti-MES activity”.
Work on `Cc1ccc(NC(=O)c2ccc(N)cc2)cc1C` [Example 9] yielded a minimal effective dose [4, 13] of 300 mg/kg, a minimal effective dose [4, 14] of 300 mg/kg and an ED50 ([4]; ip) of 80.8 mg/kg. For the same compound, the “MES ED50” value ([1]; ip, mice) was 42.31 mg/kg, the “PI values (in words)” value ([1]; ip, mice) was “higher PI values” and the “anti-MES / anticonvulsant activity (in words)” value ([1]; ip, mice) was “good anti-MES activity”. For the same compound, the “MES PI (protective index = TD50/ED50)” value ([1]; mouse, in vivo, ip) was 4.59 and the TD50 ([8]; ip) was 194.14 mg/kg.
For `Cc1cc(C)cc(NC(=O)c2ccc(N)cc2)c1` [Example 10], the minimal effective dose [4, 13] was > 600 mg/kg, the minimal effective dose [4, 14] was > 600 mg/kg and the “anti-MES / anticonvulsant activity (in words)” value ([1]; ip, mice) was “good anti-MES activity”.
For `CC(C)c1ccccc1NC(=O)c1ccc(N)cc1` [Example 11], the minimal effective dose [4, 13] was 600 mg/kg, the “MES ED50” value ([1]; ip, mice) was 81.52 mg/kg and the “PI values (in words)” value ([1]; ip, mice) was “highest PI values”. The “MES PI (protective index = TD50/ED50)” value ([1]; mouse, in vivo, ip) was 8.70 and the TD50 ([8]; ip) was 708.98 mg/kg.
In the case of `Cc1cccc(C(C)C)c1NC(=O)c1ccc(N)cc1` [Example 12], the minimal effective dose [4, 13] is reported as > 600 mg/kg, the minimal effective dose [4, 14] is reported as > 600 mg/kg and the “MES ED50” value ([1]; ip, mice) is reported as 86.13 mg/kg. The “PI values (in words)” value ([1]; ip, mice) was “highest PI values”, the “anti-MES / anticonvulsant activity (in words)” value ([1]; ip, mice) was “more potent” and the “MES PI (protective index = TD50/ED50)” value ([1]; mouse, in vivo, ip) was > 17.42. The “rotorod toxicity at 600 mg/kg” value [8] was “no rotorod toxicity”, the TD50 ([8]; ip) was > 1500.0 mg/kg and the TD50 (in vivo [11]) was 1500 to 2000 mg/kg.
For `CCc1cccc(C(C)C)c1NC(=O)c1ccc(N)cc1` [Example 13], the minimal effective dose [4, 13] was 300 mg/kg, the minimal effective dose [4, 14] was > 600 mg/kg and the “MES ED50” value ([1]; ip, mice) was 16.67 mg/kg. The “anti-MES / anticonvulsant activity (in words)” value ([1]; ip, mice) was “more potent”, the “MES PI (protective index = TD50/ED50)” value ([1]; mouse, in vivo, ip) was 2.95 and the TD50 ([8]; ip) was 49.10 mg/kg. For the same compound, the LD50 (in vivo [9]) was < 600 mg/kg and the “animals with rotorod toxicity at 30 mg/kg” value ([10]; 30 mg/kg) was 1 out of 4.
In the case of `Cc1cccc(C)c1NC(=O)c1cccc(N)c1` [II-1, 3-amino-N-(2,6-dimethylphenyl) benzamide], the “MES ED50” value ([1]; ip, mice) is reported as 13.48 mg/kg, the “MES PI (protective index = TD50/ED50)” value ([1]; mouse, in vivo, ip) is reported as 21.11 and the TD50 (in vivo [11]) is reported as 285 mg/kg.
With `CCC1(c2ccccc2)C(=O)NC(=O)NC1=O` [Phenobarbital, reference compound] the ED50 ([4]; ip) was 13.2 mg/kg, the “MES ED50” value ([1]; ip, mice) was 21.78 mg/kg and the “lethal dose (LD50)” value (ip, mice) was 264.70 mg/kg.
For `O=C1NC(=O)C(c2ccccc2)(c2ccccc2)N1` [Phenytoin], the “plasma level at which ataxia is obvious” value [12] is given as 30000 ng/mL, the “plasma level at which lethargy is apparent” value [12] is given as “about 40 mcg/ml” and the “plasma level at which nystagmus is seen” value [12] is given as “around 20 mcg/ml”. The “plasma level controlling seizures” value [12] was ≥ 10 µg/mL.
`CCCC(CCC)C(=O)O` [Valproic Acid, reference compound] gave an ED50 ([4]; ip) of 149 mg/kg and an LD50 (in vivo [9]) of 1100 mg/kg.
